In USH1923H, “Herbicidal (oxaalkyl) phenyl-substituted heterocycles” (FMC Corporation, priority 1998, dated 2000):

Legend:
blackgrass [1] = assay: postemergence herbicidal activity on blackgrass; assay type: in vivo, Aloepecurus myosuroides; details: Alopecurus myosuroides, post-emergence, 0.3 Kg/Ha, after 12-17 days, read-out: POSTEMERGENCE HERBICIDAL ACTIVITY (% CONTROL) ALOMY
Protocol: (§1) The (oxaalkyl)phenyl-substituted heterocycles of this invention were tested for pre- and postemergence herbicidal activity using a variety of crops and weeds. The test plants included soybean (Glycine max var. Winchester),field corn (Zea mays var. Pioneer 3732), wheat (Triticum aestivum var. Lew), morningglory (Ipomea lacunosa or Ipomea hederacea), […] (Abutilon theophrasti), green foxtail (Setaria viridis), Johnsongrass (Sorghum halepense), blackgrass (Aloepecurus myosuroides), common chickweed (Stellaria media), and common cocklebur (Xanthium strumarium L.).
(§2) For preemergence testing, two disposable fiber flats (8 cm×15 cm×25 cm) for each rate of application of each candidate herbicide were filled to an approximate depth of 6.5 cm with steam-sterilized sandy loam soil. The soil was leveled and impressed with a template to provide five evenly spaced furrows 13 cm long and 0.5 cm deep in each flat. Seeds of soybean, wheat, corn, green foxtail, and johnsongrass were planted in the furrows of the first flat, and seeds of velvetleaf, morningglory, common chickweed, cocklebur, and blackgrass were planted in the furrows of the second flat. The five-row template was employed to firmly press the seeds into place. A topping soil of equal portions of sand and sandy loam soil was placed uniformly on top of each flat to a depth of approximately 0.5 cm. Flats for postemergence testing were prepared in the same manner except that they were planted 9-14 days prior to the preemergence flats and were placed in a greenhouse and watered, thus allowing the seeds to germinate and the foliage to develop.
(§3) In both pre- and postemergence tests, a stock solution of the candidate herbicide was prepared by dissolving 0.27 g of the compound in 20 mL of water/acetone (50/50) containing 0.5% v/v sorbitan monolaurate. For an application rate of 3000 g/ha of herbicide a 10 mL portion of the stock solution was diluted with water/acetone (50/50) to 45 mL.
(§4) The preemergence flats were initially subjected to a light water spray. The four flats were placed two by two along a conveyor belt (i.e., the two preemergence followed by the two postemergence flats). The conveyor belt fed under a spray nozzle mounted about ten inches above the postemergent foliage. The preemergent flats were elevated on the belt so that the soil surface was at the same level below the spray nozzle as the foliage canopy of the postemergent plants. The spray of herbicidal solution was commenced and once stabilized, the flats were passed under the spray at a speed to receive a coverage equivalent of 1000 L/ha. At this coverage the application rates are those shown in the above table for the individual herbicidal solutions. The preemergence flats were watered immediately thereafter, placed in the greenhouse and watered regularly at the soil surface. The postemergence flats were immediately placed in the green-house and not watered until 24 hours after treatment with the test solution. Thereafter they were regularly watered at ground level. After 12-17 days the plants were examined and the phytotoxicity data were recorded.
(§5) Phytotoxicity data were taken as percent control. Percent control was by a method similar to the 0 to 1 00 rating system disclosed in "Research Methods in Weed Science," 2nd ed., B. Truelove, Ed.; Southern Weed Science Society; Auburn University, Auburn, Ala., 1977.

corn [2] = assay: preemergence herbicidal activity on corn; assay type: in vivo, Zea mays var. Pioneer 3732; details: Zea mays, pre-emergence, 0.3 Kg/Ha, after 12-17 days, read-out: PREEMERGENCE HERBICIDAL ACTIVITY (% CONTROL) CRN
Protocol: as §1, §2, §3, §4, §5

soybean [3] = assay: preemergence herbicidal activity on soybean; assay type: in vivo, Glycine max var. Winchester; details: Glycine max, pre-emergence, 0.3 Kg/Ha, after 12-17 days, read-out: PREEMERGENCE HERBICIDAL ACTIVITY (% CONTROL) SOY
Protocol: as §1, §2, §3, §4, §5

wheat [4] = assay: postemergence herbicidal activity on wheat; assay type: in vivo, Triticum aestivum var. Lew; details: Triticum aestivum, post-emergence, 0.3 Kg/Ha, after 12-17 days, read-out: POSTEMERGENCE HERBICIDAL ACTIVITY (% CONTROL) WHT
Protocol: as §1, §2, §3, §4, §5

green foxtail [5] = assay: postemergence herbicidal activity on green foxtail; assay type: in vivo; details: Setaria viridis, post-emergence, 0.3 Kg/Ha, after 12-17 days, read-out: POSTEMERGENCE HERBICIDAL ACTIVITY (% CONTROL) SETVI
Protocol: as §1, §2, §3, §4, §5

green foxtail [6] = assay: preemergence herbicidal activity on green foxtail; assay type: in vivo; details: Setaria viridis, pre-emergence, 0.3 Kg/Ha, after 12-17 days, read-out: PREEMERGENCE HERBICIDAL ACTIVITY (% CONTROL) SETVI
Protocol: as §1, §2, §3, §4, §5

morningglory [7] = assay: postemergence herbicidal activity on morningglory; assay type: in vivo, Ipomea lacunosa or Ipomea hederacea; details: Ipomoea, post-emergence, 0.3 Kg/Ha, after 12-17 days, read-out: POSTEMERGENCE HERBICIDAL ACTIVITY (% CONTROL) IPOSS
Protocol: as §1, §2, §3, §4, §5

morningglory [8] = assay: preemergence herbicidal activity on morningglory; assay type: in vivo, Ipomea lacunosa or Ipomea hederacea; details: Ipomoea, pre-emergence, 0.3 Kg/Ha, after 12-17 days, read-out: PREEMERGENCE HERBICIDAL ACTIVITY (% CONTROL) IPOSS
Protocol: as §1, §2, §3, §4, §5

johnsongrass [9] = assay: postemergence herbicidal activity on johnsongrass; assay type: in vivo; details: Sorghum halepense, post-emergence, 0.3 Kg/Ha, after 12-17 days, read-out: POSTEMERGENCE HERBICIDAL ACTIVITY (% CONTROL) SORHA
Protocol: as §1, §2, §3, §4, §5

corn [10] = assay: postemergence herbicidal activity on corn; assay type: in vivo, Zea mays var. Pioneer 3732; details: Zea mays, post-emergence, 0.3 Kg/Ha, after 12-17 days, read-out: POSTEMERGENCE HERBICIDAL ACTIVITY (% CONTROL) CRN
Protocol: as §1, §2, §3, §4, §5

chickweed [11] = assay: preemergence herbicidal activity on chickweed; assay type: in vivo; details: Stellaria media, pre-emergence, 0.3 Kg/Ha, after 12-17 days, read-out: PREEMERGENCE HERBICIDAL ACTIVITY (% CONTROL) STEME
Protocol: as §1, §2, §3, §4, §5

johnsongrass [12] = assay: preemergence herbicidal activity on johnsongrass; assay type: in vivo; details: Sorghum halepense, pre-emergence, 0.3 Kg/Ha, after 12-17 days, read-out: PREEMERGENCE HERBICIDAL ACTIVITY (% CONTROL) SORHA
Protocol: as §1, §2, §3, §4, §5

cocklebur = assay: postemergence herbicidal activity on cocklebur; assay type: in vivo, Xanthium strumarium L.; details: Xanthium strumarium, post-emergence, 0.3 Kg/Ha, after 12-17 days, read-out: POSTEMERGENCE HERBICIDAL ACTIVITY (% CONTROL) XANPE
Protocol: as §1, §2, §3, §4, §5

wheat [13] = assay: preemergence herbicidal activity on wheat; assay type: in vivo, Triticum aestivum var. Lew; details: Triticum aestivum, pre-emergence, 0.3 Kg/Ha, after 12-17 days, read-out: PREEMERGENCE HERBICIDAL ACTIVITY (% CONTROL) WHT
Protocol: as §1, §2, §3, §4, §5

soybean [14] = assay: postemergence herbicidal activity on soybean; assay type: in vivo, Glycine max var. Winchester; details: Glycine max, post-emergence, 0.3 Kg/Ha, after 12-17 days, read-out: POSTEMERGENCE HERBICIDAL ACTIVITY (% CONTROL) SOY
Protocol: as §1, §2, §3, §4, §5

chickweed [15] = assay: postemergence herbicidal activity on chickweed; assay type: in vivo; details: Stellaria media, post-emergence, 0.3 Kg/Ha, after 12-17 days, read-out: POSTEMERGENCE HERBICIDAL ACTIVITY (% CONTROL) STEME
Protocol: as §1, §2, §3, §4, §5

velvetleaf [16] = assay: postemergence herbicidal activity on velvetleaf; assay type: in vivo; details: Abutilon theophrasti, post-emergence, 0.3 Kg/Ha, after 12-17 days, read-out: POSTEMERGENCE HERBICIDAL ACTIVITY (% CONTROL) ABUTH
Protocol: as §1, §2, §3, §4, §5

blackgrass [17] = assay: preemergence herbicidal activity on blackgrass; assay type: in vivo, Aloepecurus myosuroides; details: Alopecurus myosuroides, pre-emergence, 0.3 Kg/Ha, after 12-17 days, read-out: PREEMERGENCE HERBICIDAL ACTIVITY (% CONTROL) ALOMY
Protocol: as §1, §2, §3, §4, §5

velvetleaf [18] = assay: preemergence herbicidal activity on velvetleaf; assay type: in vivo; details: Abutilon theophrasti, pre-emergence, 0.3 Kg/Ha, after 12-17 days, read-out: PREEMERGENCE HERBICIDAL ACTIVITY (% CONTROL) ABUTH
Protocol: as §1, §2, §3, §4, §5

| SMILES | activity at 300 g/ha (blackgrass [1]) [%] | activity at 300 g/ha (corn [2]) [%] | activity at 300 g/ha (soybean [3]) [%] | activity at 300 g/ha (wheat [4]) [%] | activity at 300 g/ha (green foxtail [5]) [%] | activity at 300 g/ha (green foxtail [6]) [%] | activity at 300 g/ha (morningglory [7]) [%] | activity at 300 g/ha (morningglory [8]) [%] | activity at 300 g/ha (johnsongrass [9]) [%] | activity at 300 g/ha (corn [10]) [%] | activity at 300 g/ha (chickweed [11]) [%] | activity at 300 g/ha (johnsongrass [12]) [%] | activity at 300 g/ha (cocklebur) [%] | activity at 300 g/ha (wheat [13]) [%] | activity at 300 g/ha (soybean [14]) [%] | activity at 300 g/ha (chickweed [15]) [%] | activity at 300 g/ha (velvetleaf [16]) [%] | activity at 300 g/ha (blackgrass [17]) [%] | activity at 300 g/ha (velvetleaf [18]) [%] |
| --- | --- | --- | --- | --- | --- | --- | --- | --- | --- | --- | --- | --- | --- | --- | --- | --- | --- | --- | --- |
| CNC(=O)OCC(Cl)Cc1cc(-n2nc(C)n(C(F)F)c2=O)c(F)cc1Cl (stereo not drawn) [Compound 31, 2-CHLORO-1-[2-CHLORO-4-FLUORO-5-[4DIFLUOROMETHYL-4,5-DIHYDRO-3-METHYL-1,2,4-TRIAZOL-5(1H)-ON-1-YL]PHENYL]PROPAN-3-YL METHYLCARBAMATE] | 75 | 90 | 100 | 50 | 100 | 100 | 100 | 100 | 100 | 85 | 100 | 100 | 100 | 70 | 95 | 100 | 100 | 70 | 100 |
| CCNC(=O)OCC(Cl)Cc1cc(-n2nc(C)n(C(F)F)c2=O)c(F)cc1Cl (stereo not drawn) [Compound 32] | 70 | 70 | 100 | 40 | 100 | 100 | 95 | 95 | 90 | 80 | 90 | 95 | 100 | 40 | 95 | 100 | 100 | 75 | 100 |
| Cc1nn(-c2cc(CC(Cl)COC(=O)NC(C)(C)C)c(Cl)cc2F)c(=O)n1C(F)F (stereo not drawn) [Compound 33] | 60 | 80 | 60 | 40 | 100 | 100 | 100 | 70 | 80 | 80 | 90 | 80 | 100 | 20 | 90 | 80 | 100 | 70 | 100 |
| Cc1nn(-c2cc(CC(Cl)COC(=O)NC(C)C)c(Cl)cc2F)c(=O)n1C(F)F (stereo not drawn) [Compound 34] | 65 | 70 | 80 | 50 | 100 | 100 | 90 | 100 | 95 | 85 | 100 | 100 | 100 | 50 | 90 | 75 | 100 | 60 | 100 |
| Cc1nn(-c2cc(CC(Cl)COC(=O)NC3CCCCC3)c(Cl)cc2F)c(=O)n1C(F)F (stereo not drawn) [Compound 35] | 30 | 10 | 30 | 25 | 80 | 100 | 80 | 90 | 60 | 70 | 100 | 50 | 100 | 20 | 80 | 30 | 100 | 30 | 100 |
| CCCCCCNC(=O)OCC(Cl)Cc1cc(-n2nc(C)n(C(F)F)c2=O)c(F)cc1Cl (stereo not drawn) [Compound 36] | 50 | 30 | 70 | 30 | 80 | 100 | 100 | 100 | 75 | 80 | 60 | 70 | 100 | 30 | 80 | 100 | 100 | 50 | 100 |
